One test has as its target T1, PLK1 (Homo sapiens, UniProt P53350).
T1 construct: endogenous in cells; host or cells: HeLa LgBit (Plk1-HiBit KI): HeLa stably expressing LgBit, with a CRISPR/Cas9 knock-in of HiBit at the endogenous PLK1 locus
The test is described as follows: Luciferase assay for PLK1 in HeLa LgBit (Plk1-HiBit KI) cell line. The test is classed as cell-based. The settings on record: 300 nM compound, luminescence after 9 hours. Put shortly: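 Luminescence, followed in real time after adding compound at 300 nM and Endurazine substrate, is reported relative to DMSO-treated wells. Cells are a HeLa LgBit line with a Plk1-HiBit knock-in, synchronized by 2 mM thymidine for 24 h, released, and cultured 18 h before treatment.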
(In general: With HiBiT, luminescence reflects the tagged protein that the partner subunit can reach.)

A further test has as its system NCI-H526 cell line. Briefly: Cell viability assay for H526 cell (EZ-Cytox). Format: cell-based. The settings on record: Homo sapiens, NCI-H526, 120 h; H526 cells, 5 days, 3000 nM to 0.46 nM. The procedure:
(1) Culture of NCI-H526 Cell Line
(2) Treatment of Compounds of the Present Invention and Method of Cell Viability Assay
After treating the compound to each well to make the total volume of 200 μL, it was cultured in a CO2 incubator (Thermo Fisher Science, Cat. No. 4111) for 5 days.
The absorbance of the completely cultured sample was measured by setting the wavelength of a plate reader (BMG Labtech, CLARIOstar Plus) to […], and was measured after shaking for 3 minutes in a plate reader before measurement.
In Table 3, Activity represents IC50 value of each Exemplary Compound treatment group to H526 cell line (A: <30 nM, B: <50 nM, C: <100 nM, D: <200 nM, E: <400 nM).

Here are results for 13 compounds from patent publication US20250114460A1, “NOVEL PLK1 DEGRADATION INDUCING COMPOUND” (UPPTHERA, INC., priority 2021, published 2025).

A value given as a limit tells only on which side of the number the result lay.

T1 sequence (P53350 whole entry): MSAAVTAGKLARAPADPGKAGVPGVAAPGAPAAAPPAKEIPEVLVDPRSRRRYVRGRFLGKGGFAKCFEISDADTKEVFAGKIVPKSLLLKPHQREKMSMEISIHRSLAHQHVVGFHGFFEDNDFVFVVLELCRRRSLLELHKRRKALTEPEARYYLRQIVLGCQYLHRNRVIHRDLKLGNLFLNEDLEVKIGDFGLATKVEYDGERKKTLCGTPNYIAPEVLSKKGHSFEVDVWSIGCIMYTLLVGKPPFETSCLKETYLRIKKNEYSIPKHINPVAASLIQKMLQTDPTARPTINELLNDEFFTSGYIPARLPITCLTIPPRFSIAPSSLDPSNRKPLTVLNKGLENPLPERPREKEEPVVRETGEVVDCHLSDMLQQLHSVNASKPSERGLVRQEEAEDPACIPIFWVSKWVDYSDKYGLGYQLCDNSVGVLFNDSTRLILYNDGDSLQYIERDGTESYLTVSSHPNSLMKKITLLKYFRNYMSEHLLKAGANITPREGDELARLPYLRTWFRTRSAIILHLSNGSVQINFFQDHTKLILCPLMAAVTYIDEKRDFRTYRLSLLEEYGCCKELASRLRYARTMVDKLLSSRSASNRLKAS

In the case of `COc1cc(C(=O)NN2CCC(N3CC4(CCN(c5cccc6c5CN(C5CCC(=O)NC5=O)C6=O)CC4)C3)CC2)ccc1Nc1ncc2c(n1)N(C(C)C)CC(F)(F)C(=O)N2C` (centres unmarked) [Compound 218, 4-((7,7-difluoro-9-isopropyl-5-methyl-6-oxo-6,7,8,9-tetrahydro-5H-pyrimido[4,5-b][1,4]diazepin-2-yl)amino)-N-(4-(7-(2-(2,6-dioxopiperidin-3-yl)-1-oxoisoindolin-4-yl)-2,7-diazaspiro[3.5]nonan-2-yl)piperidin-1-yl)-3-methoxybenzamide], the “Activity: ratio of the luminescense value of each Exemplary Compound treatment group to DMSO treatment group” value (“Activity: ratio” for short) at PLK1 was “++ (++<0.6)”. In addition, the IC50 in the test on NCI-H526 cell line was less than 50 nM.

`COc1cc(C(=O)N[C@@H]2CCCN(C(=O)CN3CCN(c4cccc5c4C(=O)N(C4CCC(=O)NC4=O)C5=O)CC3)C2)ccc1Nc1ncc2c(n1)N(C1CCCC1)CC(F)(F)C(=O)N2C` (stereo partly drawn) [Compound 146, 4-((9-cyclopentyl-7,7-difluoro-5-methyl-6-oxo-6,7,8,9-tetrahydro-5H-pyrimido[4,5-b][1,4]diazepin-2-yl)amino)-N-((3R)-1-(2-(4-(2-(2,6-dioxopiperidin-3-yl)-1,3-dioxoisoindolin-4-yl)piperazin-1-yl)acetyl)piperidin-3-yl)-3-methoxybenzamide]: on PLK1, the “Activity: ratio” value is recorded as “+++ (+++: <0.3)”. This compound also gave an IC50 in the test with NCI-H526 cell line of less than 50 nM.

Regarding `COc1cc(C(=O)NN2CCN(C(=O)CCCNc3cccc4c3C(=O)N(C3CCC(=O)NC3=O)C4=O)CC2)c(F)cc1Nc1ncc2c(n1)N(C1CCCC1)CC(F)(F)C(=O)N2C` (centres unmarked) [Compound 29, 4-((9-cyclopentyl-7,7-difluoro-5-methyl-6-oxo-6,7,8,9-tetrahydro-5H-pyrimido[4,5-b][1,4]diazepin-2-yl)amino)-N-(4-(4-((2-(2,6-dioxopiperidin-3-yl)-1,3-dioxoisoindolin-4-yl)amino)butanoyl)piperazin-1-yl)-2-fluoro-5-methoxybenzamide], the “Activity: ratio” value on PLK1 was “++ (++<0.6)”. This compound yielded a 50% inhibitory concentration (IC50) with NCI-H526 cell line of less than 30 nM.

Regarding `COc1cc(C(=O)N2CCC(CCCN3CCN(c4ccc5c(c4)C(=O)N(C4CCC(=O)NC4=O)C5=O)CC3)CC2)ccc1Nc1ncc2c(n1)N(C1CCCC1)CC(F)(F)C(=O)N2C` (centres unmarked) [Compound 99, 5-(4-(3-(1-(4-((9-cyclopentyl-7,7-difluoro-5-methyl-6-oxo-6,7,8,9-tetrahydro-5H-pyrimido[4,5-b][1,4]diazepin-2-yl)amino)-3-methoxybenzoyl)piperidin-4-yl)propyl)piperazin-1-yl)-2-(2,6-dioxopiperidin-3-yl)isoindoline-1,3-dione], on PLK1, the “Activity: ratio” value was “++ (++<0.6)”. In the test on NCI-H526 cell line, this compound yielded an IC50 of less than 400 nM.

For the compound `COc1cc(C(=O)N[C@H]2CCCN(C(=O)CN3CCN(c4cccc5c4C(=O)N(C4CCC(=O)NC4=O)C5=O)CC3)C2)ccc1Nc1ncc2c(n1)N(C1CCCC1)CC(F)(F)C(=O)N2C` (stereo partly drawn) [Compound 147, 4-((9-cyclopentyl-7,7-difluoro-5-methyl-6-oxo-6,7,8,9-tetrahydro-5H-pyrimido[4,5-b][1,4]diazepin-2-yl)amino)-N-((3S)-1-(2-(4-(2-(2,6-dioxopiperidin-3-yl)-1,3-dioxoisoindolin-4-yl)piperazin-1-yl)acetyl)piperidin-3-yl)-3-methoxybenzamide], the “Activity: ratio” value on PLK1 is given as “+++ (+++: <0.3)”. This compound also showed an IC50 in the test with NCI-H526 cell line of less than 50 nM.

For `COc1cc(C(=O)NCC2CCN(CC3CCN(c4cccc5c4C(=O)N(C4CCC(=O)NC4=O)C5=O)CC3)CC2)ccc1Nc1ncc2c(n1)N(C1CCCC1)CC(F)(F)C(=O)N2C` (centres unmarked) [Compound 53, 4-((9-cyclopentyl-7,7-difluoro-5-methyl-6-oxo-6,7,8,9-tetrahydro-5H-pyrimido[4,5-b][1,4]diazepin-2-yl)amino)-N-((1-((1-(2-(2,6-dioxopiperidin-3-yl)-1,3-dioxoisoindolin-4-yl)piperidin-4-yl)methyl)piperidin-4-yl)methyl)-3-methoxybenzamide], on PLK1, the “Activity: ratio” value is “+++ (+++: <0.3)”. The compound also had a concentration for half-maximal inhibition (IC50) in the test with NCI-H526 cell line of less than 50 nM.

Regarding `COc1cc(C(=O)N2CCN(CCN3CCN(c4cccc5c4C(=O)N(C4CCC(=O)NC4=O)C5=O)CC3)CC2)ccc1Nc1ncc2c(n1)N(C1CCCC1)CC(F)(F)C(=O)N2C` (centres unmarked) [Compound 86, 4-(4-(2-(4-(4-((9-cyclopentyl-7,7-difluoro-5-methyl-6-oxo-6,7,8,9-tetrahydro-5H-pyrimido[4,5-b][1,4]diazepin-2-yl)amino)-3-methoxybenzoyl)piperazin-1-yl)ethyl)piperazin-1-yl)-2-(2,6-dioxopiperidin-3-yl)isoindoline-1,3-dione], the “Activity: ratio” value on PLK1 is “++ (++<0.6)”. For the same compound, in the test on NCI-H526 cell line, the concentration for half-maximal inhibition (IC50) is less than 400 nM.

Take `COc1cc(C(=O)NC2CCN(CC3CN(c4cccc5c4C(=O)N(C4CCC(=O)NC4=O)C5=O)C3)CC2)ccc1Nc1ncc2c(n1)N(C1CCCC1)CC(F)(F)C(=O)N2C` (centres unmarked) [Compound 135, 4-((9-cyclopentyl-7,7-difluoro-5-methyl-6-oxo-6,7,8,9-tetrahydro-5H-pyrimido[4,5-b][1,4]diazepin-2-yl)amino)-N-(1-((1-(2-(2,6-dioxopiperidin-3-yl)-1,3-dioxoisoindolin-4-yl)azetidin-3-yl)methyl)piperidin-4-yl)-3-methoxybenzamide]: the “Activity: ratio” value on PLK1 is reported as “+++ (+++: <0.3)”. The half-maximal inhibitory concentration (IC50) in the test on NCI-H526 cell line was less than 50 nM.

Take `COc1cc(C(=O)NC2CCN(C(=O)CN3CCN(c4ccc5c(c4)C(=O)N(C4CCC(=O)NC4=O)C5=O)CC3)CC2)ccc1Nc1ncc2c(n1)N(C1CCCC1)CC(F)(F)C(=O)N2C` (centres unmarked) [Compound 127, 4-((9-cyclopentyl-7,7-difluoro-5-methyl-6-oxo-6,7,8,9-tetrahydro-5H-pyrimido[4,5-b][1,4]diazepin-2-yl)amino)-N-(1-(2-(4-(2-(2,6-dioxopiperidin-3-yl)-1,3-dioxoisoindolin-5-yl)piperazin-1-yl)acetyl)piperidin-4-yl)-3-methoxybenzamide]: at PLK1, the “Activity: ratio” value is “++ (++<0.6)”. In the test with NCI-H526 cell line, this compound registered an IC50 of less than 100 nM.

As for `COc1cc(C(=O)N2CCC(N3CCN(CCOCCCNc4cccc5c4C(=O)N(C4CCC(=O)NC4=O)C5=O)CC3)CC2)c(F)cc1Nc1ncc2c(n1)N(C1CCCC1)CC(F)(F)C(=O)N2C` (centres unmarked) [Compound 190, 4-((3-(2-(4-(1-(4-((9-cyclopentyl-7,7-difluoro-5-methyl-6-oxo-6,7,8,9-tetrahydro-5H-pyrimido[4,5-b][1,4]diazepin-2-yl)amino)-2-fluoro-5-methoxybenzoyl)piperidin-4-yl)piperazin-1-yl)ethoxy)propyl)amino)-2-(2,6-dioxopiperidin-3-yl)isoindoline-1,3-dione], on PLK1, the “Activity: ratio” value is “++ (++<0.6)”. Also, in the test with NCI-H526 cell line, the IC50 is less than 30 nM.

With `COc1cc(C(=O)N2CCC(CCN3CCN(c4cccc5c4C(=O)N(C4CCC(=O)NC4=O)C5=O)CC3)CC2)ccc1Nc1ncc2c(n1)N(C1CCCC1)CC(F)(F)C(=O)N2C` (centres unmarked) [Compound 94, 4-(4-(2-(1-(4-((9-cyclopentyl-7,7-difluoro-5-methyl-6-oxo-6,7,8,9-tetrahydro-5H-pyrimido[4,5-b][1,4]diazepin-2-yl)amino)-3-methoxybenzoyl)piperidin-4-yl)ethyl)piperazin-1-yl)-2-(2,6-dioxopiperidin-3-yl)isoindoline-1,3-dione], the “Activity: ratio” value at PLK1 is “++ (++<0.6)”. Further, the IC50 in the test with NCI-H526 cell line is less than 400 nM.

`COc1cc(C(=O)NC2CCN(C(=O)CCCNc3cccc4c3C(=O)N(C3CCC(=O)NC3=O)C4=O)CC2)c(F)cc1Nc1ncc2c(n1)N(C(C)C)CC(F)(F)C(=O)N2C` (centres unmarked) [Compound 33, 4-((7,7-difluoro-9-isopropyl-5-methyl-6-oxo-6,7,8,9-tetrahydro-5H-pyrimido[4,5-b][1,4]diazepin-2-yl)amino)-N-(1-(4-((2-(2,6-dioxopiperidin-3-yl)-1,3-dioxoisoindolin-4-yl)amino)butanoyl)piperidin-4-yl)-2-fluoro-5-methoxybenzamide]: on PLK1, the “Activity: ratio” value is listed as “++ (++<0.6)”. For the same compound, the IC50 with NCI-H526 cell line was less than 200 nM.

As for `COc1cc(N2CCC(CN3CCN(c4cccc5c4C(=O)N(C4CCC(=O)NC4=O)C5=O)CC3)CC2)c(F)cc1Nc1ncc2c(n1)N(C1CCCC1)CC(F)(F)C(=O)N2C` (centres unmarked) [Compound 103, 4-(4-((1-(4-((9-cyclopentyl-7,7-difluoro-5-methyl-6-oxo-6,7,8,9-tetrahydro-5H-pyrimido[4,5-b][1,4]diazepin-2-yl)amino)-2-fluoro-5-methoxyphenyl)piperidin-4-yl)methyl)piperazin-1-yl)-2-(2,6-dioxopiperidin-3-yl)isoindoline-1,3-dione], the “Activity: ratio” value at PLK1 is listed as “++ (++<0.6)”. Moreover, the IC50 with NCI-H526 cell line was less than 200 nM.

Usually IC50 stands for the concentration that inhibits the measured activity by half. A high value points to a need for much substance.
